Test results published in patent US12486269B2 (Aconcagua Bio, Inc., priority 2024, dated 2025).

What was measured:
[1] = biological target: T1, COS-7/AMY3 (human calcitonin receptor (CTR) and RAMP3) (Homo sapiens, UniProt O60896+P30988); assay: Amylin Receptor cAMP Assay II; type: cell-based; conditions: values marked **: Amylin Receptor cAMP Assay II; COS-7/AMY3 cells, cAMP dynamic 2 kit, 30 min; read-out: Amylin Receptor cAMP Stimulation Activity: EC50
T1 construct: expressed in transfected cells; host or cells: COS-7
Outline: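 COS-7 cells stably co-expressing human CTR and RAMP3 (AMY3), 2000 cells/well in HBSS with 20 mM HEPES, 0.5 mM IBMX, 0.1% casein, stimulated with compound for 30 min at 37 °C. cAMP measured by HTRF (665/615 nm), activity normalized between vehicle and maximal control.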

[2] = biological target: T2, human calcitonin receptor (CTR) (Homo sapiens, UniProt P30988); assay: Calcitonin Receptor (CTR) cAMP Assay; type: cell-based; conditions: COS7-human CTR Clone #2 stable cell line, cAMP dynamic 2 kit, 30 min; read-out: Calcitonin Receptor cAMP Stimulation Activity: EC50
T2 construct: expressed in transfected cells; host or cells: COS-7 (COS7-human CTR Clone #2)
T2 sequence (P30988 25-474): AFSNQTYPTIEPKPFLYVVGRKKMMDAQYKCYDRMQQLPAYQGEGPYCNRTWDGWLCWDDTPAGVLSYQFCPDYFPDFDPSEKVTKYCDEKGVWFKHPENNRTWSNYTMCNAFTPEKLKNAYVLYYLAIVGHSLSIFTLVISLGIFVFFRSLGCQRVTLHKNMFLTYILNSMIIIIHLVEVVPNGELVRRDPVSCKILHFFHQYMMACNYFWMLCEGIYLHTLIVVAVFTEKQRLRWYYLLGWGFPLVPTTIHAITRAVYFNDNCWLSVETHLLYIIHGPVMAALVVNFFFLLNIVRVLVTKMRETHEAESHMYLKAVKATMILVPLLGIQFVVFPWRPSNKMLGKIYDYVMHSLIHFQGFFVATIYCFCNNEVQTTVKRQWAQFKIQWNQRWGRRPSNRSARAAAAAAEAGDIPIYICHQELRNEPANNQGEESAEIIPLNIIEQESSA
Outline: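 COS-7 cells stably expressing human CTR (2000 cells/well) were incubated 30 min at 37 °C with 4-fold serially diluted compound in HBSS/20 mM HEPES/0.5 mM IBMX/0.1% casein. cAMP was detected by HTRF (665/615 nm) after 1 h at RT. % activity was normalised to vehicle and positive controls.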

T1 sequence (O60896 24-148, one chain of several): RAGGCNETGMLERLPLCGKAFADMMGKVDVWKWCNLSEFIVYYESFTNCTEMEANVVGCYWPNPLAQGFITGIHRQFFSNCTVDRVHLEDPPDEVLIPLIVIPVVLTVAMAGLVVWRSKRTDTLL

EC50 [1] [nM] | EC50 [2] [nM] | Structure (SMILES)
128 | 177 | COc1cccc2c1CC[C@H]2Nc1nccc2cc(-c3c(-c4n[nH]c(=O)o4)c(CCc4ccc(F)cc4)nc4c3S(=O)(=O)C[C@@H]4C(C)C)sc12 [Compound 236, 5-((R)-5-(4-fluorophenethyl)-3-isopropyl-7-(7-(((R)-4-methoxy-2,3-dihydro-1H-inden-1-yl)amino)thieno[2,3-c]pyridin-2-yl)-1,1-dioxido-2,3-dihydrothieno[3,2-b]pyridin-6-yl)-1,3,4-oxadiazol-2(3H)-one]
1.78 | 0.0975 | COc1c(F)ccc2c1CC[C@H]2Nc1nccc2sc(-c3c4c(nc(CCc5ccc(F)cc5)c3-c3n[nH]c(=O)o3)C35CC(CN3C4=O)C5)cc12 [Compound 269, (R)-5-(4-(4-((5-fluoro-4-methoxy-2,3-dihydro-1H-inden-1-yl)amino)thieno[3,2-c]pyridin-2-yl)-2-(4-fluorophenethyl)-5-oxo-8,9-dihydro-5H,7H-8,9a-methanopyrido[2,3-a]pyrrolizin-3-yl)-1,3,4-oxadiazol-2(3H)-one]
12.2 | 0.8 | COc1cccc2c1CC[C@H]2Nc1nccc2cc(-c3c4c(nc(CCc5ccc(F)cc5)c3-c3n[nH]c(=O)o3)[C@@H]3CCCN3C4=O)sc12 [Compound 102, 5-((S)-2-(4-fluorophenethyl)-4-(7-(((R)-4-methoxy-2,3-dihydro-1H-inden-1-yl)amino)thieno[2,3-c]pyridin-2-yl)-5-oxo-7,8,9,9a-tetrahydro-5H-pyrido[2,3-a]pyrrolizin-3-yl)-1,3,4-oxadiazol-2(3H)-one]
12.7 | 0.559 | COc1cccc2c1CC[C@H]2Nc1nccc2cc(-c3c4c(nc(CCc5ccc(F)cc5)c3-c3n[nH]c(=O)o3)C35CC3CCN5C4=O)sc12 (stereo partly drawn) [Compound 180, 5-(8-(4-fluorophenethyl)-6-(7-(((R)-4-methoxy-2,3-dihydro-1H-inden-1-yl)amino)thieno[2,3-c]pyridin-2-yl)-5-oxo-1,1a,2,3-tetrahydro-5H-cyclopropa[g]pyrido[2,3-a]pyrrolizin-7-yl)-1,3,4-oxadiazol-2(3H)-one]
0.35 | 0.0178 | COc1c(F)ccc2c1CC[C@H]2Nc1nc(C(F)F)cc2cc(-c3c4c(nc(CCc5ccc(F)cc5)c3-c3n[nH]c(=O)o3)C35CC(CN3C4=O)C5)sc12 [Compound 287, (R)-5-(4-(5-(difluoromethyl)-7-((5-fluoro-4-methoxy-2,3-dihydro-1H-inden-1-yl)amino)thieno[2,3-c]pyridin-2-yl)-2-(4-fluorophenethyl)-5-oxo-8,9-dihydro-5H,7H-8,9a-methanopyrido[2,3-a]pyrrolizin-3-yl)-1,3,4-oxadiazol-2(3H)-one]
1.88 | 0.0708 | Cc1cc2cc(-c3c4c(nc(CCc5ccc(F)cc5)c3-c3n[nH]c(=O)o3)[C@@H]3CCCN3C4=O)sc2c(N[C@@H]2CCc3cc(F)c(F)cc32)n1 [Compound 253, 5-((S)-4-(7-(((R)-5,6-difluoro-2,3-dihydro-1H-inden-1-yl)amino)-5-methylthieno[2,3-c]pyridin-2-yl)-2-(4-fluorophenethyl)-5-oxo-7,8,9,9a-tetrahydro-5H-pyrido[2,3-a]pyrrolizin-3-yl)-1,3,4-oxadiazol-2(3H)-one]
71.4 | 1.52 | COc1cccc2c1CC[C@H]2Nc1nccc2cc(-c3c4c(nc(CCc5cccc(C(F)(F)F)c5)c3-c3n[nH]c(=O)o3)[C@@H]3CCCN3C4=O)sc12 [Compound 171, 5-((S)-4-(7-(((R)-4-methoxy-2,3-dihydro-1H-inden-1-yl)amino)thieno[2,3-c]pyridin-2-yl)-5-oxo-2-(3-(trifluoromethyl)phenethyl)-7,8,9,9a-tetrahydro-5H-pyrido[2,3-a]pyrrolizin-3-yl)-1,3,4-oxadiazol-2(3H)-one]
0.184 | 0.00786 | O=C1c2c(nc(CCc3ccc(F)cc3)c(-c3n[nH]c(=O)o3)c2-c2cc3ccnc(N[C@@H]4CCc5cc(F)c(F)cc54)c3s2)C23CC(CN12)C3 [Compound 190, (R)-5-(4-(7-((5,6-difluoro-2,3-dihydro-1H-inden-1-yl)amino)thieno[2,3-c]pyridin-2-yl)-2-(4-fluorophenethyl)-5-oxo-8,9-dihydro-5H,7H-8,9a-methanopyrido[2,3-a]pyrrolizin-3-yl)-1,3,4-oxadiazol-2(3H)-one]
34.4 | 9.03 | CN(Cc1ccc(F)c(F)c1)c1nccc2cc(-c3c4c(nc(CCc5ccc(F)cc5)c3-c3noc(=O)[nH]3)[C@@H]3CCCN3C4=O)sc12 [Compound 107, (S)-3-(4-(7-((3,4-difluorobenzyl)(methyl)amino)thieno[2,3-c]pyridin-2-yl)-2-(4-fluorophenethyl)-5-oxo-7,8,9,9a-tetrahydro-5H-pyrido[2,3-a]pyrrolizin-3-yl)-1,2,4-oxadiazol-5(4H)-one]
102 | 4.5 | COc1cccc2c1CC[C@H]2Nc1nccc2cc(-c3c4c(nc(C[C@@H]5CCc6cc(F)ccc65)c3-c3n[nH]c(=O)o3)[C@@H]3CCCN3C4=O)sc12 [Compound 250, 5-((S)-2-(((S)-5-fluoro-2,3-dihydro-1H-inden-1-yl)methyl)-4-(7-(((R)-4-methoxy-2,3-dihydro-1H-inden-1-yl)amino)thieno[2,3-c]pyridin-2-yl)-5-oxo-7,8,9,9a-tetrahydro-5H-pyrido[2,3-a]pyrrolizin-3-yl)-1,3,4-oxadiazol-2(3H)-one]
1810 | 39.4 | O=C1c2c(nc(CCc3ccc(F)cc3)c(-c3n[nH]c(=O)o3)c2-c2cnc3c(ccn3Cc3ccc(F)cn3)c2)[C@@H]2CCCN12 [Compound 177, (S)-5-(2-(4-fluorophenethyl)-4-(1-((5-fluoropyridin-2-yl)methyl)-1H-pyrrolo[2,3-b]pyridin-5-yl)-5-oxo-7,8,9,9a-tetrahydro-5H-pyrido[2,3-a]pyrrolizin-3-yl)-1,3,4-oxadiazol-2(3H)-one]
42.9 | 1.19 | COc1cccc2c1CC[C@H]2Nc1nccc2cc(-c3c4c(nc(CCc5ccc(C(F)(F)F)cc5)c3-c3noc(=O)[nH]3)[C@@H]3CCCN3C4=O)sc12 [Compound 123]
3030 | 25.7 | C[C@@H](Nc1nccc2cc(-c3c4c(nc(CCc5ccc(F)cc5)c3-c3n[nH]c(=O)o3)[C@@H]3CCCN3C4=O)sc12)c1ccc(F)cc1F [Compound 228, 5-((S)-4-(7-(((R)-1-(2,4-difluorophenyl)ethyl)amino)thieno[2,3-c]pyridin-2-yl)-2-(4-fluorophenethyl)-5-oxo-7,8,9,9a-tetrahydro-5H-pyrido[2,3-a]pyrrolizin-3-yl)-1,3,4-oxadiazol-2(3H)-one]
15.3 | 0.341 | O=C1c2c(nc(CCc3ccc(F)cc3)c(-c3n[nH]c(=O)o3)c2-c2cc3ccnc(N[C@@H]4CCc5c4ccc(F)c5Cl)c3s2)[C@@H]2CCCN12 [Compound 168, 5-((S)-4-(7-(((R)-4-chloro-5-fluoro-2,3-dihydro-1H-inden-1-yl)amino)thieno[2,3-c]pyridin-2-yl)-2-(4-fluorophenethyl)-5-oxo-7,8,9,9a-tetrahydro-5H-pyrido[2,3-a]pyrrolizin-3-yl)-1,3,4-oxadiazol-2(3H)-one]
